Earlier results in patent US8143291B2, “Indole compounds bearing aryl or heteroaryl groups having sphingosine-1-phosphate (S1P) receptor biological activity” (Allergan, Inc., priority 2008, dated 2012).

Tested on: perfused porcine eyes
Settings: by altering paracellular permeability, IOVS 45, 2263, 2004

## CCCCCCCCCCCCC/C=C/[C@@H](O)[C@@H](N)COP(=O)(O)O [S1P, Sphingosine-1-phosphate]
  decrease of outflow facility: > 30%
